Data published in US9980927B2, “Use of tapentadol for inhibiting and/or treating depression and anxiety” (Gruenenthal GmbH, priority 2011, dated 2018).

Columns and labels:
[1] = tested on: patients with inadequately managed, severe chronic low back pain with or without a neuropathic pain component; assay: EuroQol-5 Dimension (EQ-5D) health status index score, same trial; format: in vivo, human patients; conditions: Baseline to Week 12
Text: This was a multicenter, multinational, open-label, effectiveness phase IIIb trial to evaluate effectiveness and safety of tapentadol prolonged release treatment in patients with inadequately managed, severe chronic low back pain with or without a neuropathic pain component. Patients taking WHO Step II analgesics discontinued those analgesics before starting study medication; patients taking Step I analgesics and/or centrally acting co-analgesics continued on the same dose. […] All patients received tapentadol prolonged release (50-250 mg bid) for up to 12 weeks (5-week titration period and a 7-week maintenance period). Tapentadol immediate release (IR) 50 mg (twice a day, hours apart) was permitted (combined total daily dose of tapentadol prolonged release and tapentadol IR, 500 mg/day). The primary efficacy endpoint was the change from Baseline to Week 6 (when tapentadol prolonged release doses were stable) in average pain intensity on the 11-point NRS-3 using the last observation carried forward (LOCF) for imputing missing scores. […]
All subjects completed Short Form-36 (SF-36) and EuroQol-5 Dimension (EQ-5D) questionnaires and the Hospital Anxiety and Depression Scale (HADS). […] Adverse events were recorded throughout the trial.

[2] = tested on: patients with inadequately managed, severe chronic low back pain with or without a neuropathic pain component; assay: Patient Global Impression of Change (PGIC), same trial; format: in vivo, human patients
Text: This was a multicenter, multinational, open-label, effectiveness phase IIIb trial to evaluate effectiveness and safety of tapentadol prolonged release treatment in patients with inadequately managed, severe chronic low back pain with or without a neuropathic pain component. Patients taking WHO Step II analgesics discontinued those analgesics before starting study medication; patients taking Step I analgesics and/or centrally acting co-analgesics continued on the same dose. […] All patients received tapentadol prolonged release (50-250 mg bid) for up to 12 weeks (5-week titration period and a 7-week maintenance period). Tapentadol immediate release (IR) 50 mg (twice a day, hours apart) was permitted (combined total daily dose of tapentadol prolonged release and tapentadol IR, 500 mg/day). The primary efficacy endpoint was the change from Baseline to Week 6 (when tapentadol prolonged release doses were stable) in average pain intensity on the 11-point NRS-3 using the last observation carried forward (LOCF) for imputing missing scores. The painDETECT questionnaire was used to evaluate the likelihood of a neuropathic pain component of low back pain; patients were classified as painDETECT “negative,” “unclear,” or “positive.” The population of patients classified as painDETECT negative was limited to approximately 30% of the total population.
All subjects completed Short Form-36 (SF-36) and EuroQol-5 Dimension (EQ-5D) questionnaires and the Hospital Anxiety and Depression Scale (HADS). The Patient Global Impression of Change (PGIC) and Clinical global impression of change (CGIC) were also used as secondary endpoints. For both tests, patients completed the statement, “since I began trial treatment, I would rate my overall condition as,” using 7 possible responses (“very much worse” to “very much improved”). Adverse events were recorded throughout the trial.

CC[C@@H](c1cccc(O)c1)[C@@H](C)CN(C)C [tapentadol, (−)-(1R,2R)-3-(3-dimethylamino-1-ethyl-2-methyl-propyl)-phenol]
mean (SD) change in the EQ-5D health status index score ([1]; patients painDETECT negative, P=0.0022): 0.18 | mean (SD) change in the EQ-5D health status index score ([1]; patients painDETECT positive, P<0.0001): 0.36 (0.32) | percentage of patients reporting “very much improved” or “much improved” on the PGIC ([2]; Week 1 (26/172)): 15.1% | percentage of patients reporting “very much improved” or “much improved” on the PGIC ([2]; Week 6 (67/138)): 48.6% | percentage of patients reporting “very much improved” or “much improved” on the PGIC ([2]; Week 12 (61/91)): 67.1%
